Data reported in patent US7772430B2, “Derivatives of arylsulfonamido-substituted hydroxamic acid as matrix metalloproteinases inhibitors” (Protera S.R.L., priority 2004, dated 2010).

Key:
[1] = molecular target: T1, Catalytic domain of MMP-12 (Homo sapiens, UniProt P39900); test: In vitro inhibition test, fluorogenic peptide substrate (Knight et al.); type: biochemical; details: 298 K, pH 7, 1% DMSO; stated in words only
T1 construct: Catalytic domain of MMP-12 was cloned, expressed and purified; made in house
T1 sequence (P39900 106-263 limits assumed): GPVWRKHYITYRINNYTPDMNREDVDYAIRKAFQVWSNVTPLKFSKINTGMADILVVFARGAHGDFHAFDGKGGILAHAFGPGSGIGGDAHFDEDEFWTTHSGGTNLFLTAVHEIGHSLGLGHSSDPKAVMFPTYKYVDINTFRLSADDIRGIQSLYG
Description: The compounds of the invention, prepared as above described, were tested in vitro according to the method reported by Knight et al. in FEBS Lett 1992, 296 (3):263.
Catalytic domain of MMP-12 was cloned, expressed and purified according to the procedure reported in Banci et al. Journal of Molecular Catalysis A: Chemical, 2003, Vol. 204-205, pp. 401-408). Preparation of catalytic domain of MMP-1 was performed as follows: proMMP-1 cDNA was cloned into the pET21 (Novagen) expression vector. The recombinant vector was transformed into Escherichia Coli BL21 cells. The bacteria were grown in 2 XYt media and incubated at 37° C. When the cells reached the exponential growth phase, the expression of the protein was induced by adding 0.5 mM of IPTG and the incubation was continued further for four hours. […]
The protein was maintained in presence of inhibitor for 5 min before the substrate was added. Subsequently, after addition of peptidic substrate, the increase of fluorescence intensity was measured vs. time (excitation 328 nm, emission 393 nm) using a Varian/Eclipse fluorimeter.
Matrix metalloproteinases cleave peptidic bond glycine-leucine separating coumarinic group from 2,4-dinitrophenol and so causing a high increase of fluorescence intensity under the conditions indicated above. […]

Solubility in water = type: physicochemical; details: stated in words only

solubility in water (Solubility in water): good solubility
SMILES: COc1ccc(S(=O)(=O)NC(CO)C(=O)NO)cc1 (centres unmarked) [Example 7, 3,N-dihydroxy-2-[(4-methoxy-benzenesulfonyl)amino]-propionamide]
ability to inhibit MMP-12 (from IC50 data) [1]: do not have the inhibition activity and selectivity of present compounds of formula (I)
